One series deals with mouse. The settings on record: Combined chronic toxicity/carcinogenicity; other; Oral; Feed; dose end: 24 month; group: systemic; systemic / clinical chemistry / alanine aminotransferase (alt/sgpt) / alanine aminotransferase (alt/sgpt) + systemic / clinical chemistry / ….
For series [1], the system named is dog. The settings on record: Subchronic oral toxicity in nonrodent, beagle, Feed, dose end: 90 day, group: systemic, systemic / clinical chemistry / alkaline phosphatase (alp/alk) / alkaline phosphatase (alp/alk) + systemic / in life observation / body ….
The subject of series [2] is rat. The settings on record: Subchronic oral toxicity in rodents, sprague dawley, Feed, dose end: 13 week, group: systemic.
Series [3] has as its system rat. The note with it: Prenatal developmental toxicity study, other, Oral, Gavage/Intubation, dose end: 15 GD.
Series [4] concerns rat. The settings on record: Combined chronic toxicity/carcinogenicity; other; Oral; Feed; dose end: 2 year; group: systemic; systemic / clinical chemistry / alanine aminotransferase (alt/sgpt) / alanine aminotransferase (alt/sgpt) + systemic / clinical chemistry / ….
Series [5] concerns rat. The settings on record: Subchronic oral toxicity in rodents, wistar, Feed, dose end: 3 month, group: systemic.
Series [6] concerns dog. The note with it: Chronic toxicity, beagle, Oral, Feed, dose end: 104 week, group: systemic.
In series [7] the test system is rat. The settings on record: Subchronic oral toxicity in rodents, sprague dawley, Gavage/Intubation, dose end: 90 day, group: systemic.
Series [8] relates to rat. The note with it: Neurotoxicity screening battery; sprague dawley; Oral; Gavage/Intubation; dose end: 13 week; group: cannot be grouped; systemic / in life observation / body weight / body weight gain + systemic / in life observation / clinical signs / red or crusty deposits ….
For the next series, the system named is rabbit. The note with it: Subchronic dermal toxicity, new zealand white, Topical, dose end: 90 day, group: systemic, systemic / in life observation / clinical signs / erythema.
The subject of series [9] is rat. The settings on record: Sub-acute repeat dose toxicity; sprague dawley; Oral; Gavage/Intubation; dose end: 28 day; group: systemic; systemic / clinical chemistry / alanine aminotransferase (alt/sgpt) / alanine aminotransferase (alt/sgpt) + systemic / clinical chemistry / ….
Series [10] concerns dog. The note with it: Sub-acute repeat dose toxicity; beagle; Oral; Gavage/Intubation; dose end: 28 day; group: systemic; systemic / clinical chemistry / alanine aminotransferase (alt/sgpt) / alanine aminotransferase (alt/sgpt) + systemic / clinical chemistry / ….
[11] abbreviates: systemic / clinical chemistry / fatty acids / non-esterified (free) fatty acids + systemic / clinical chemistry / triglycerides / ….
Setting [12] is: group: developmental, developmental / developmental malformation / bone / full supernumerary.
The mark [13] stands for this setting: group: developmental, developmental / developmental malformation / bone / full supernumerary + developmental / developmental malformation / kidney / dilated renal….
The mark [14] stands for this setting: group: maternal, systemic / in life observation / body weight / body weight gain + systemic / in life observation / clinical signs / alopecia + systemic / in….
[15] abbreviates: systemic / clinical chemistry / glutamate dehydrogenase / glutamate dehydrogenase.
Setting [16] is: systemic / clinical chemistry / glutamate dehydrogenase / glutamate dehydrogenase + systemic / clinical chemistry / cholesterol / ….
Setting [17] is: systemic / clinical chemistry / aminopyrine-n-demethylase / aminopyrine-n-demethylase.
Where [18] appears, read: systemic / clinical chemistry / aminopyrine-n-demethylase / aminopyrine-n-demethylase + systemic / clinical chemistry / cytochrome p450, nos….
Setting [19] is: systemic / organ weight / liver / relative to body weight.

Where only a bound is given, the exact number is not on record here.

The term LOAEL denotes the lowest dose or exposure tested at which an adverse effect was seen. Usually NOAEL stands for the highest dose or exposure tested at which no adverse effect was seen. Regarding `CC(C)(C)C(O)C(Oc1ccc(Cl)cc1)n1cncn1` (configuration not stated) [Triadimenol], the LEL came to 71.4 mg/kg/day with mouse; 44.2 mg/kg/day in the series with dog [1]; 39.6 mg/kg/day with rat [2] (systemic / organ weight / liver / absolute + systemic / organ weight / liver / relative to body weight + systemic / pathology microscopic / …); 60 mg/kg/day in the series on rat [3] (setting [12]); 15 mg/kg/day in the series on rat [3] (group: maternal, systemic / in life observation / body weight / body weight gain + systemic / in life observation / food consumption / food consumption); 25 mg/kg/day with rat [4]. The figures for the LEL in the series on rat [5] (setting [15]) and with dog [6] (setting [17]) were 30 mg/kg/day and 211 mg/kg/day, respectively. The LOAEL was 71.4 mg/kg/day in the series with mouse; 44.2 mg/kg/day with dog [1]; 208 mg/kg/day in the series on rat [2] (setting [11]); 60 mg/kg/day in the series on rat [3] (setting [12]); 15 mg/kg/day in the series with rat [3] (group: maternal, systemic / in life observation / body weight / body weight gain); 25 mg/kg/day with rat [4]. The values for the LOAEL in the series with rat [5] (setting [15]) and in the series with dog [6] (setting [17]) were 30 mg/kg/day and 211 mg/kg/day, respectively. The NEL in the series with mouse was 17.9 mg/kg/day; in the series with dog [1], under 44.2 mg/kg/day; with rat [2] (setting [11]) it was 8 mg/kg/day; in the series with rat [3] (setting [13]), 25 mg/kg/day; in the series with rat [3] (setting [14]), 5 mg/kg/day; in the series with rat [4], 6.25 mg/kg/day. The NEL came to 7.5 mg/kg/day with rat [5] (setting [16]) and 56 mg/kg/day with dog [6] (setting [18]). Besides, the NOAEL in the series with mouse is 17.9 mg/kg/day; in the series on dog [1], under 44.2 mg/kg/day; in the series with rat [2] (setting [11]), 39.6 mg/kg/day; with rat [3] (setting [13]) it was 25 mg/kg/day; with rat [3] (setting [14]), 5 mg/kg/day; in the series on rat [4] it was 6.25 mg/kg/day. The no observed adverse effect level (NOAEL) amounted to 7.5 mg/kg/day with rat [5] (setting [16]) and 56 mg/kg/day with dog [6] (setting [18]).

Regarding `CN(C)C(=S)[S-].[Na+]` [Sodium dimethyldithiocarbamate], the LOAEL with rat [7] (systemic / clinical chemistry / alkaline phosphatase (alp/alk) / alkaline phosphatase (alp/alk) + systemic / clinical chemistry / glucose / …) worked out at 250 mg/kg/day; in the series with rat [8] it was 250 mg/kg/day; in the series with rabbit, 50 mg/kg/day. Also, the values for the LEL in the series on rat [7] (setting [19]), with rat [8] and in the series on rabbit were 0.5 mg/kg/day, 250 mg/kg/day and 50 mg/kg/day, respectively. Besides, the NEL with rat [7] (setting [19]) was under 0.5 mg/kg/day; in the series on rat [8] it was 5 mg/kg/day; in the series on rabbit, under 50 mg/kg/day. The NOAEL in the series on rat [7] (systemic / organ weight / liver / relative to body weight + systemic / clinical chemistry / alkaline phosphatase (alp/alk) / alkaline …) was 5 mg/kg/day; in the series on rat [8] it was 5 mg/kg/day; in the series on rabbit it was under 50 mg/kg/day.

As for `CNS(=O)(=O)c1cc(C(=O)N2CCC(CCN3C4CCC3CC(n3c(C)nc5ccccc53)C4)(c3cccc(F)c3)CC2)c(Cl)cc1F` (configuration not stated), in the series with rat [9], the LEL was 500 mg/kg/day, the LOAEL was over 2000 mg/kg/day, the NEL was under 500 mg/kg/day and the NOAEL is at least 2000 mg/kg/day. In the series on dog [10], the LEL was 250 mg/kg/day, the LOAEL is over 750 mg/kg/day, the NEL was under 250 mg/kg/day and the NOAEL was at least 750 mg/kg/day.

The values are drawn from EPA's ToxRefDB 2.
